Source: US20120004244A1, “Bis Aromatic Compounds for Use as LTC4 Synthase Inhibitors” (BIOLIPOX AB, priority 2009, published 2012)

Molecular target: T1, Recombinant human LTC4 synthase (Homo sapiens, UniProt Q16873)
T1 construct: made in house; host or cells: Pichia pastoris ('Piccia pastoralis' [sic])
T1 sequence (Q16873 1-150): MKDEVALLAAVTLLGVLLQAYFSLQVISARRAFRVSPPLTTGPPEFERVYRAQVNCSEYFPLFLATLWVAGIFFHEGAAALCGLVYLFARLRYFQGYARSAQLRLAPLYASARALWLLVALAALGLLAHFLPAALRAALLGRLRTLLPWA
Assay: LTC4 synthase in vitro assay (LTA4 to LTC4, HTRF detection)
Assay type: biochemical
Details: for inhibition at 3 µM: compound concentration 3 μM; for inhibition at 10 µM: 5 min, total concentration of title compound in the assay 10 μM
Method in brief: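 Purified recombinant human LTC4 synthase expressed in Pichia (0.5 μg/mL total protein) was preincubated with inhibitor at 10 μM final for 10 min at room temperature in PBS pH 7.4 with 5 mM GSH. LTA4 was then added at 2.5 μM final, and after 5 min at room temperature LTC4 was detected by HTRF.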

Row | SMILES | IC50 [nM] | inhibition at 10 µM [%] | inhibition at 3 µM [%]
1 | CN(c1ccc(Cl)cc1)c1ccc(C(=O)c2ccc(NC(=O)c3cccc4c3OCO4)c(C(=O)O)c2)nc1 [3:28, 5-{5-[(4-Chlorophenyl)(methyl)amino]picolinoyl}-2-(2,3-methylenedioxy-benzamido)benzoic acid] | 50 | – | –
2 | COc1cc(OC)cc(C(=O)Nc2ccc(C(=O)c3ccc(N(C)c4ccc(Cl)cc4)cn3)cc2C(=O)O)c1 [3:29, 5-{5-[(4-Chlorophenyl)(methyl)amino]picolinoyl}-2-(3,5-dimethoxybenzamido)-benzoic acid] | 12 | – | –
3 | COc1cccc(F)c1C(=O)Nc1ccc(C(=O)c2ccc(N(C)c3ccc(Cl)cc3)cn2)cc1C(=O)O [3:30, 5-{5-[(4-Chlorophenyl)(methyl)amino]picolinoyl}-2-(2-fluoro-6-methoxybenz-amido)benzoic acid] | 26 | – | –
4 | COc1c(F)c(F)cc(C(=O)Nc2ccc(C(=O)c3ccc(N(C)c4ccc(Cl)cc4)cn3)cc2C(=O)O)c1F [3:31, 5-{5-[(4-Chlorophenyl)(methyl)amino]picolinoyl}-2-(2,4,5-trifluoro-3-methoxy-benzamido)benzoic acid] | 61 | – | –
5 | COc1cccc(C(=O)Nc2ccc(C(=O)c3ccc(N(C)c4ccccc4)cn3)cc2C(=O)O)c1 [3:33, 2-(3-Methoxybenzamido)-5-{5-[(methyl)(phenyl)amino]picolinoyl}benzoic acid] | 226 | – | –
6 | COc1ccc(C(=O)Nc2ccc(C(=O)c3ccc(N(C)c4ccccc4)cn3)cc2C(=O)O)c(OC)c1 [3:34, 2-(2,4-Dimethoxybenzamido)-5-{5-[(methyl)(phenyl)amino]picolinoyl}benzoic acid] | 163 | – | –
7 | COc1cc(F)c(C(=O)Nc2ccc(C(=O)c3ccc(N(C)c4ccc(Cl)cc4)cn3)cc2C(=O)O)c(F)c1 [3:35, 5-{5-[(4-Chlorophenyl)(methyl)amino]picolinoyl}-2-(2,6-difluoro-4-methoxy-benzamido)benzoic acid] | 73 | – | –
8 | COc1ccc(C(=O)Nc2ccc(C(=O)c3ccc(N(C)c4ccc(Cl)cc4)cn3)cc2C(=O)O)c(Cl)c1OC [3:36, 2-(2-Chloro-3,4-dimethoxybenzamido)-5-{5-[(4-chlorophenyl)(methyl)amino]-picolinoyl}benzoic acid] | 39 | – | –
9 | COc1cccc(C(=O)Nc2ccc(C(=O)c3ccc(N(C)Cc4ccc(Cl)cc4)cn3)cc2C(=O)O)c1 [3:37, 5-{5-[(4-Chlorobenzyl)(methyl)amino]picolinoyl}-2-(3-methoxybenzamido)-benzoic acid] | 21 | – | –
10 | CN(c1ccc(Cl)cc1)c1ccc(C(=O)c2ccc(NC(=O)c3cccc(Br)c3)c(C(=O)O)c2)nc1 [3:38, 2-(3-Bromobenzamido)-5-{5-[(4-chlorophenyl)(methyl)amino]picolinoyl}benzoic acid] | 68 | – | –
11 | CN(c1ccc(Cl)cc1)c1ccc(C(=O)c2ccc(NC(=O)c3cccc(C(F)(F)F)c3)c(C(=O)O)c2)nc1 [3:39, 5-{5-[(4-chlorophenyl)(methyl)amino]picolinoyl}-2-(3-trifluoromethylbenzamido)-benzoic acid] | 91 | – | –
12 | CN(c1ccc(Cl)cc1)c1ccc(C(=O)c2ccc(NS(=O)(=O)c3ccccc3)c(C(=O)O)c2)nc1 [4:1, 5-{5-[(4-Chlorophenyl)(methyl)amino]picolinoyl}-2-(phenylsulfonamido)benzoic acid] | 39 | – | 100
13 | CCCCOc1ccc(S(=O)(=O)Nc2ccc(C(=O)c3ccc(N(C)c4ccc(Cl)cc4)cn3)cc2C(=O)O)cc1 [4:2, 2-(4-Butoxyphenylsulfonamido)-5-{5-[(4-chlorophenyl)(methyl)amino]picolinoyl}-benzoic acid] | 23 | – | 100
14 | CN(c1ccc(Cl)cc1)c1ccc(C(=O)c2ccc(NS(=O)(=O)c3cccs3)c(C(=O)O)c2)nc1 [4:3, 5-{5-[(4-Chlorophenyl)(methyl)amino]picolinoyl}-2-(2-thienylsulfonamido)benzoic acid] | 40 | 99 | –
15 | CN(c1ccc(Cl)cc1)c1ccc(C(=O)c2ccc(NS(=O)(=O)c3ccc(C(F)(F)F)cc3)c(C(=O)O)c2)nc1 [4:4, 5-{5-[(4-Chlorophenyl)(methyl)amino]picolinoyl}-2-(4-trifluoromethylphenylsulfon-amido)benzoic acid] | 43 | 100 | –
16 | CN(c1ccc(Cl)cc1)c1ccc(C(=O)c2ccc(NS(=O)(=O)c3ccc(Cl)cc3)c(C(=O)O)c2)nc1 [4:5, 5-{5-[(4-Chlorophenyl)(methyl)amino]picolinoyl}-2-(4-chlorophenylsulfonamido)-benzoic acid] | 33 | 100 | –
17 | O=C(c1ccc(NS(=O)(=O)c2ccc(Cl)cc2)c(C(=O)O)c1)c1ccc(N(CC2CC2)c2ccc(Cl)cc2)cn1 [4:6, 2-(4-Chlorophenylsulfonamido)-5-{5-[(4-chlorophenyl)(cyclopropylmethyl)-amino]picolinoyl}benzoic acid] | 17 | – | –
18 | CN(c1ccc(Cl)cc1)c1ccc(C(=O)c2ccc(C(=O)C(C)(C)C)c(C(=O)O)c2)nc1 [5:13, 5-{5-[(4-Chlorophenyl)(methyl)amino]picolinoyl}-2-(2,2-dimethylpropionyl)-benzoic acid] | 491 | – | –
19 | CCOc1ccc(C(=O)c2ccc(C(=O)c3ccc(N(C)c4ccc(Cl)cc4)cn3)cc2C(=O)O)cc1OCC [5:14, 5-{5-[(4-Chlorophenyl)(methyl)amino]picolinoyl}-2-(3,4-diethoxybenzoyl)-benzoic acid] | 77 | – | –
20 | CN(c1ccc(Cl)cc1)c1ccc(C(=O)c2ccc(C(=O)Cc3ccccc3)c(C(=O)O)c2)nc1 [5:16, 5-{5-[(4-Chlorophenyl)(methyl)amino]picolinoyl}-2-phenylacetylbenzoic acid] | 257 | – | –
21 | CCCCCCC(=O)c1ccc(C(=O)c2ccc(N(C)c3ccc(Cl)cc3)cn2)cc1C(=O)O [5:17, 5-{5-[(4-Chlorophenyl)(methyl)amino]picolinoyl}-2-heptanoylbenzoic acid] | 90 | – | –
22 | CN(c1ccc(Cl)cc1)c1ccc(C(=O)c2ccc(C(=O)C3CCCCC3)c(C(=O)O)c2)nc1 [5:18, 5-{5-[(4-Chlorophenyl)(methyl)amino]picolinoyl}-2-cyclohexylcarbonylbenzoic acid] | 246 | – | –
23 | CN(c1ccc(Cl)cc1)c1ccc(C(=O)c2ccc(C(=O)C3(c4ccccc4)CC3)c(C(=O)O)c2)nc1 [5:19] | 32 | – | –
24 | CN(c1ccc(Cl)cc1)c1ccc(C(=O)c2ccc(C(=O)c3cccs3)c(C(=O)O)c2)nc1 [5:20, 5-{5-[(4-Chlorophenyl)(methyl)amino]picolinoyl}-2-(2-thienylcarbonyl)benzoic acid] | 104 | – | –

Continued, in another order:

Row | IC50 [nM] | inhibition at 10 µM [%] | SMILES | inhibition at 3 µM [%]
25 | 42 | – | COc1ccc(C(=O)Nc2ccc(C(=O)c3ccc(N(C)c4ccc(Cl)cc4)cn3)cc2C(=O)O)c(C)c1 [3:32, 5-{5-[(4-Chlorophenyl)(methyl)amino]picolinoyl}-2-(4-methoxy-2-methylbenz-amido)benzoic acid] | –
26 | 72 | – | CN(c1ccc(Cl)cc1)c1ccc(C(=O)c2ccc(C(=O)c3ccccc3)c(C(=O)O)c2)nc1 [5:1, 2-Benzoyl-5-{5-[(4-chlorophenyl)(methyl)amino]picolinoyl}benzoic acid] | –
27 | 78 | – | CN(c1ccc(C(F)(F)F)cc1)c1ccc(C(=O)c2ccc(C(=O)c3ccccc3)c(C(=O)O)c2)nc1 [5:2, 2-Benzoyl-5-{5-[(methyl)(4-trifluoromethylphenyl)amino]picolinoyl}benzoic acid] | –
28 | 50 | – | COc1ccc(C(=O)c2ccc(C(=O)c3ccc(N(C)c4ccc(Cl)cc4)cn3)cc2C(=O)O)cc1 [5:3, 5-{5-[(4-Chlorophenyl)(methyl)amino]picolinoyl}-2-(4-methoxybenzoyl)benzoic acid] | –
29 | 29 | – | COc1ccc(C(=O)c2ccc(C(=O)c3ccc(N(CC4CC4)c4ccc(Cl)cc4)cn3)cc2C(=O)O)cc1 [5:4] | –
30 | 46 | – | COc1ccc(C(=O)c2ccc(C(=O)c3ccc(N(CC4CC4)c4ccc(Cl)cc4F)cn3)cc2C(=O)O)cc1 [5:5] | –
31 | 401 | – | COc1ccc(C(=O)c2ccc(C(=O)c3ccc(N(CC(F)(F)F)c4ccc(Cl)cc4F)cn3)cc2C(=O)O)cc1 [5:6, 5-{5-[(4-Chloro-2-fluorophenyl)(2,2,2-trifluoroethyl)amino]picolinoyl}-2-(4-methoxybenzoyl)benzoic acid] | –
32 | 36 | – | COc1cccc(C(=O)c2ccc(C(=O)c3ccc(N(C)c4ccc(Cl)cc4)cn3)cc2C(=O)O)c1 [5:7, 5-{5-[(4-Chlorophenyl)(methyl)amino]picolinoyl}-2-(3-methoxybenzoyl)benzoic acid] | –
33 | 154 | – | COc1ccccc1C(=O)c1ccc(C(=O)c2ccc(N(C)c3ccc(Cl)cc3)cn2)cc1C(=O)O [5:8, 5-{5-[(4-Chlorophenyl)(methyl)amino]picolinoyl}-2-(2-methoxybenzoyl)benzoic acid] | –
34 | 101 | – | CCOc1ccc(C(=O)c2ccc(C(=O)c3ccc(N(C)c4ccc(Cl)cc4)cn3)cc2C(=O)O)cc1 [5:9, 5-{5-[(4-Chlorophenyl)(methyl)amino]picolinoyl}-2-(4-ethoxybenzoyl)benzoic acid] | –
35 | 68 | – | COc1ccc(C(=O)c2ccc(C(=O)c3ccc(N(C)c4ccc(Cl)cc4)cn3)cc2C(=O)O)c(OC)c1 [5:10, 5-{5-[(4-Chlorophenyl)(methyl)amino]picolinoyl}-2-(2,4-dimethoxybenzoyl)-benzoic acid] | –
36 | 216 | – | CN(c1ccc(Cl)cc1)c1ccc(C(=O)c2ccc(C(=O)c3ccc(C(F)(F)F)cc3)c(C(=O)O)c2)nc1 [5:11] | –
37 | 202 | – | CN(c1ccc(Cl)cc1)c1ccc(C(=O)c2ccc(C(=O)c3ccc([N+](=O)[O-])cc3)c(C(=O)O)c2)nc1 [5:12] | –
38 | 126 | – | CN(c1ccc(Cl)cc1)c1ccc(C(=O)c2ccc(C(=O)c3ccc(F)cc3)c(C(=O)O)c2)nc1 [5:15, 5-{5-[(4-Chlorophenyl)(methyl)amino]picolinoyl}-2-(4-fluorobenzoyl)benzoic acid] | –
